Measurements as given in patent publication US20220313600A1, “FORMULATIONS OF PSMA IMAGING AGENTS” (Clarity Pharmaceuticals Limited, priority 2019, published 2022).

Tests used:
[1] = Degradation of the compound of Formula (I) when the radiolabelling mixture is mixed at raised temperature; format: physicochemical; conditions: temperatures higher than about 40° C., for example 60° C.; mixture with Cu radioisotope and acetate buffer
From the text: The solution comprising the mixture of the Cu radioisotope, the compound of Formula (I) and the acetate buffer is then allowed to mix for a time and at a particular temperature in order to allow for complexation of the compound of Formula (I) with the Cu radioisotope. The solution may be mixed using an appropriate apparatus. For example, given the small volumes used, an Eppendorf tube may be an appropriate vessel, such that an Eppendorf Thermomixer may be used to both mix and if required, heat the solution. In an embodiment, the solution is mixed at room temperature. In an embodiment, the solution is mixed at about 40° C. […] While a lower temperature of about 21° C., i.e. room temperature, may be used for mixing, the complexation reaction may not be complete at 5 minutes but is completed by about 15 minutes. […] In an embodiment, the solution is mixed at about 40° C. for about 5 minutes. In an embodiment, the solution is mixed at about 40° C. for about 10 minutes. In another embodiment, the solution is mixed at about 40° C. for about 15 minutes. In another embodiment, the solution is mixed at about 21° C. for about 10 minutes. In another embodiment, the solution is mixed at about 21° C. for about 15 minutes.

[2] = Stability of the compound of Formula (I) formulated as an aqueous solution; format: physicochemical
From the text: One approach to overcome the observed instability may be to add one or more components that are antioxidants and/or stabilizing agents to the formulation, however the inclusion of further components to a formulation introduces potential reactivity issues between the compound of Formula (I) and these added components. For instance, the addition of an antioxidant may in fact react with the compound of Formula (I) thus potentially changing the structure and function of the compound, which is undesirable.

O=C(O)CCC(NC(=O)NC(CCCCNC(=O)CCCCCCCNC(=O)C(Cc1ccccc1)NC(=O)C(Cc1ccccc1)NC(=O)CCCC(=O)NC12CNCCNCC(NC(=O)CCCC(=O)NC(Cc3ccccc3)C(=O)NC(Cc3ccccc3)C(=O)NCCCCCCCC(=O)NCCCCC(NC(=O)NC(CCC(=O)O)C(=O)O)C(=O)O)(CNCCNC1)CNCCNC2)C(=O)O)C(=O)O (stereo not drawn) [Formula (I), Sar-bisPSMA]
degradation of the compound on heating [1]: some degradation
stability of the compound in aqueous solution ([2]; formulated as an aqueous solution, no buffer or stabilizing agent): relatively unstable and prone to oxidation and degradation
stability of the compound in a formulation containing a buffer ([2]; formulation containing a buffer, in the absence of a stabilizing agent): requisite stability
